Experimental data published in patent US20230159509A1 (Amathus Therapeutics, Inc., priority 2020, published 2023).

Target: T1, TRAP1 enzyme (Homo sapiens, UniProt Q12931)
T1 construct: 150 nM Trap1 enzyme was incubated with various concentrations of the test compound
T1 sequence (Q12931 60-704): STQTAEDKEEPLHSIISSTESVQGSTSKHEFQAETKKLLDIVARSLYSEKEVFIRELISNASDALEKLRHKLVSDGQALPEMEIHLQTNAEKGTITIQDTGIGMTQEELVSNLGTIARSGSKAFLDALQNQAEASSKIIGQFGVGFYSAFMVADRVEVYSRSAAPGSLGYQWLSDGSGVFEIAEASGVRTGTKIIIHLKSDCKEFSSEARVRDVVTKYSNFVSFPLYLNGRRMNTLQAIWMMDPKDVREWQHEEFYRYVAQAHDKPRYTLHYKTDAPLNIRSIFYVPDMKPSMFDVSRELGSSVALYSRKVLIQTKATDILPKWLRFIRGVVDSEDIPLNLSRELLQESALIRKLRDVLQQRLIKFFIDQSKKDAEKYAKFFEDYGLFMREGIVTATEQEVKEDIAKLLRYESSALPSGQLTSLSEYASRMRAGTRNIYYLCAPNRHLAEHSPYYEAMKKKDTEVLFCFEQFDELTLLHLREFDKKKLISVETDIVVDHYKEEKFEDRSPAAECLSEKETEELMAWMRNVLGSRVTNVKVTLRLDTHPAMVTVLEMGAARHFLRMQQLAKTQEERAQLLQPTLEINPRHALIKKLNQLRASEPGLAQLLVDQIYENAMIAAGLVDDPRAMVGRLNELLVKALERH
Test: ADP Glo assay of TRAP1 ATPase activity
Assay type: biochemical
Details: for EC50: concentration for half maximal activation, read-out: ADP GLO DRC: GeoMean EC50; for Emax: maximal percent activation, read-out: ADP GLO DRC: Mean Emax; for activation at 50 µM: 1 h, compound concentration 50 μM, read-out: ADP-Glo Percent Activation at 50 μM
Procedure, shortened: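 Compound (0.79–100 μM) was preincubated 30 min at 37° C with 150 nM TRAP1 in 25 mM Pipes pH 7.5, 40 mM KCl, 0.05 mM MgCl2. Reaction started with 20 μM ATP, 60 min at 37° C. ADP measured by luminescence against a standard curve; activation fitted sigmoidally for EC50 and Emax.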

| Structure (SMILES) | EC50 [µM] | Emax [%] | activation at 50 µM [%] |
| --- | --- | --- | --- |
| COc1ncc(NC(=O)c2ncc(-c3ccccc3)o2)cc1S(=O)(=O)Nc1cc2ccccc2nc1C [compound 1511] | 20 to 100 | 119 to 159 | – |
| COc1ncc(NC(=O)c2ccn(C(C)C)n2)cc1S(=O)(=O)Nc1c(C)cccc1C [compound 2601] | – | – | 181 to 352 |
| COc1ncc(NC(=O)c2csc(C)n2)cc1S(=O)(=O)Nc1c(C)cccc1C [compound 2501] | 20 to 100 | 160 to 199 | – |
| COc1ncc(NC(=O)c2coc(-c3ccccc3)n2)cc1S(=O)(=O)Nc1cccc(C#N)n1 [compound 2157] | 20 to 100 | 160 to 199 | – |
| COc1ncc(NC(=O)c2n[nH]c3c2CCC3)cc1S(=O)(=O)Nc1c(C)cccc1C [compound 2701] | – | – | 181 to 352 |
| COc1ncc(NC(=O)c2noc3c2CCCC3)cc1S(=O)(=O)Nc1ccc(Cl)cc1 [compound 1194, N-(5-(N-(4-chlorophenyl)sulfamoyl)-6-methoxypyridin-3-yl)-4,5,6,7-tetrahydrobenzo[d]isoxazole-3-carboxamide] | 20 to 100 | 119 to 159 | – |
| COc1ncc(NC(=O)c2cc(C(C)C)on2)cc1S(=O)(=O)Nc1c(C)cccc1C [compound 2689] | – | – | 181 to 352 |
| COc1ncc(NC(=O)c2csc(-c3cccc(OCC(O)CO)n3)n2)cc1S(=O)(=O)Nc1c(C)cccc1C (stereo not shown) [compound 2463] | < 10 | 200 to 300 | – |
| COc1ncc(NC(=O)c2ncc(-c3ccccc3)o2)cc1S(=O)(=O)Nc1ccc2c(n1)CCC2 [compound 1908] | 20 to 100 | 119 to 159 | – |
| COc1ncc(NC(=O)c2ccc(C#N)cc2)cc1S(=O)(=O)Nc1c(C)cccc1C [compound 2529] | – | – | 181 to 352 |
| COc1ncc(NC(=O)c2ncc(-c3ccccc3)o2)cc1S(=O)(=O)Nc1nc(C(F)(F)F)ccc1C [compound 2512] | 10 to 20 | 119 to 159 | – |
| COc1ncc(NC(=O)c2csc3c2C2CCN3CC2)cc1S(=O)(=O)Nc1ccc(Cl)cc1 [compound 1944, N-(5-(N-(4-chlorophenyl)sulfamoyl)-6-methoxypyridin-3-yl)-5,6-dihydro-4H-4,7-ethanothieno[2,3-b]pyridine-3-carboxamide] | 10 to 20 | 200 to 300 | – |
| COc1ncc(NC(=O)c2cn(C)c3ncccc23)cc1S(=O)(=O)Nc1c(C)cccc1C [compound 1395, N-(5-(N-(2,6-dimethylphenyl)sulfamoyl)-6-methoxypyridin-3-yl)-1-methyl-1H-pyrrolo[2,3-b]pyridine-3-carboxamide] | 20 to 100 | 200 to 300 | – |
| COCCn1nccc1C(=O)Nc1cnc(OC)c(S(=O)(=O)Nc2c(C)cccc2C)c1 [compound 2679] | – | – | 120 to 150 |
| COc1ncc(NC(=O)c2ccc(CO)cc2)cc1S(=O)(=O)Nc1c(C)cccc1C [compound 2766] | – | – | 151 to 180 |
| COc1ncc(NC(=O)c2ccc(F)cc2)cc1S(=O)(=O)Nc1c(C)cccc1C [compound 2542] | – | – | 151 to 180 |
| COc1ncc(NC(=O)c2csc(-c3cc(F)c(F)c(F)c3)n2)cc1S(=O)(=O)Nc1c(C)csc1C [compound 2466] | < 10 | 160 to 199 | – |
| COc1ncc(NC(=O)c2ccc(S(=O)(=O)C(F)F)cc2)cc1S(=O)(=O)Nc1c(C)cccc1C [compound 2640] | – | – | 151 to 180 |
| CNc1ncc(C(F)(F)F)cc1NS(=O)(=O)c1cc(NC(=O)c2ncc(-c3ccccc3)o2)cnc1OC [compound 1824] | 20 to 100 | 160 to 199 | – |
| COc1ncc(NC(=O)c2ncsc2C)cc1S(=O)(=O)Nc1c(C)cccc1C [compound 2667] | – | – | 181 to 352 |
| COc1ncc(NC(=O)c2ccsn2)cc1S(=O)(=O)Nc1c(C)cccc1C [compound 2595] | – | – | 120 to 150 |
| COc1ncc(NC(=O)c2ccnc(N(C)C)n2)cc1S(=O)(=O)Nc1c(C)cccc1C [compound 2641] | – | – | 181 to 352 |
| COc1ncc(NC(=O)c2csc(-c3ccccc3)n2)cc1S(=O)(=O)Nc1cccc(C#N)n1 [compound 2142] | 20 to 100 | 200 to 300 | – |
| COc1ncc(NC(=O)c2csc(-c3ccccc3)n2)cc1S(=O)(=O)Nc1c(C)csc1C [compound 1985, N-(5-(N-(2,4-dimethylthiophen-3-yl)sulfamoyl)-6-methoxypyridin-3-yl)-2-phenylthiazole-4-carboxamide] | < 10 | 160 to 199 | – |
| COc1ncc(NC(=O)c2ccn3cnnc3c2)cc1S(=O)(=O)Nc1c(C)cccc1C [compound 2526] | – | – | 120 to 150 |
| COc1ncc(NC(=O)c2cccc3ocnc23)cc1S(=O)(=O)Nc1c(C)cccc1C [compound 1366, N-(5-(N-(2,6-dimethylphenyl)sulfamoyl)-6-methoxypyridin-3-yl)benzo[d]oxazole-4-carboxamide] | < 10 | 200 to 300 | – |

| Structure (SMILES) | EC50 [µM] | Emax [%] | activation at 50 µM [%] |
| --- | --- | --- | --- |
| COc1ncc(NC(=O)c2csc3c2CCCCC3)cc1S(=O)(=O)Nc1c(C)cccc1C [compound 1486, N-(5-(N-(2,6-dimethylphenyl)sulfamoyl)-6-methoxypyridin-3-yl)-5,6,7,8-tetrahydro-4H-cyclohepta[b]thiophene-3-carboxamide] | < 10 | 160 to 199 | – |
| COc1ncc(NC(=O)c2csc(C(C)C)n2)cc1S(=O)(=O)Nc1c(C)cccc1C [compound 2496] | 10 to 20 | 160 to 199 | – |
| COc1ncc(NC(=O)c2ccc3c(c2)nnn3C)cc1S(=O)(=O)Nc1c(C)cccc1C [compound 2541] | – | – | 120 to 150 |
| CCn1cncc1C(=O)Nc1cnc(OC)c(S(=O)(=O)Nc2c(C)cccc2C)c1 [compound 2630] | – | – | 120 to 150 |
| COc1nc(C(F)(F)F)c(C(=O)Nc2cnc(OC)c(S(=O)(=O)Nc3c(C)cccc3C)c2)s1 [compound 2768] | – | – | 181 to 352 |
| COc1ncc(NC(=O)c2cnccc2N(C)C)cc1S(=O)(=O)Nc1c(C)cccc1C [compound 2789] | – | – | 120 to 150 |
| COc1ncc(NC(=O)c2cccc3c2CCC3)cc1S(=O)(=O)Nc1c(C)cccc1C [compound 2621] | – | – | 151 to 180 |
| COc1ncc(NC(=O)c2onc3c2CCCC3)cc1S(=O)(=O)Nc1c(C)cccc1C [compound 2693] | – | – | 120 to 150 |
| COc1ncc(NC(=O)c2ccc(CNC(C)=O)cc2)cc1S(=O)(=O)Nc1c(C)cccc1C [compound 2682] | – | – | 151 to 180 |
| COc1ncc(NC(=O)c2cccc(CN3CCOCC3)c2)cc1S(=O)(=O)Nc1c(C)cccc1C [compound 2572] | – | – | 181 to 352 |
| COc1ncc(NC(=O)c2csc(-c3cc(F)c(F)c(F)c3)n2)cc1S(=O)(=O)Nc1cc(C)n(C(C)C)n1 [compound 2407] | 10 to 20 | 119 to 159 | – |
| COc1ncc(NC(=O)c2cn(C)nc2C(F)F)cc1S(=O)(=O)Nc1c(C)cccc1C [compound 2551] | – | – | 120 to 150 |
| COc1ncc(NC(=O)c2ncc[nH]2)cc1S(=O)(=O)Nc1c(C)cccc1C [compound 2753] | – | – | 120 to 150 |
| CCCN1CCN(c2ccc(C(=O)Nc3cnc(OC)c(S(=O)(=O)Nc4c(C)cccc4C)c3)cc2)CC1 [compound 2769] | – | – | 181 to 352 |
| COc1ncc(NC(=O)c2cccc(C(F)(F)F)c2)cc1S(=O)(=O)Nc1c(C)cccc1C [compound 2536] | – | – | 151 to 180 |
| COc1ncc(NC(=O)c2csc(-c3ccccc3)n2)cc1S(=O)(=O)Nc1ncc(C(F)(F)F)cn1 [compound 2069] | 20 to 100 | 200 to 300 | – |
| COc1ncc(NC(=O)c2csc(C(F)(F)F)n2)cc1S(=O)(=O)Nc1c(C)cccc1C [compound 2498] | 10 to 20 | 160 to 199 | – |
| COc1ncc(NC(=O)c2ccccc2CN(C)C)cc1S(=O)(=O)Nc1c(C)cccc1C [compound 2566] | – | – | 120 to 150 |
| COc1ncc(NC(=O)c2nc3c(s2)CN(C)CC3)cc1S(=O)(=O)Nc1c(C)cccc1C [compound 2594] | – | – | 151 to 180 |
| COc1ncc(NC(=O)c2ccc(N3CCOCC3)cn2)cc1S(=O)(=O)Nc1c(C)cccc1C [compound 2653] | – | – | 151 to 180 |
| COc1ncc(NC(=O)c2cnc(-c3ccccc3)o2)cc1S(=O)(=O)Nc1cccc(C(F)(F)F)n1 [compound 2397] | 20 to 100 | 119 to 159 | – |
| COc1ncc(NC(=O)c2cscn2)cc1S(=O)(=O)Nc1c(C)cccc1C [compound 2650] | – | – | 120 to 150 |
| COc1ncc(NC(=O)c2csc(-c3ccccc3)n2)cc1S(=O)(=O)Nc1ccc(C)nc1C [compound 1780] | 20 to 100 | 119 to 159 | – |
| COc1ncc(NC(=O)c2n[nH]c3c2CCCC3)cc1S(=O)(=O)Nc1c(C)cccc1C [compound 2736] | – | – | 181 to 352 |
| COc1ncc(NC(=O)c2csc3c2CNCC3)cc1S(=O)(=O)Nc1c(C)cccc1C [compound 1972, N-(5-(N-(2,6-dimethylphenyl)sulfamoyl)-6-methoxypyridin-3-yl)-4,5,6,7-tetrahydrothieno[3,2-c]pyridine-3-carboxamide] | 20 to 100 | 160 to 199 | – |
